# Test system: adipocytes differentiated from OP9 mouse stromal cell line (ATCC CRL-2749)
# Test: Oil red O staining of the fat content of adipocytes treated with plant extracts or combinations
# Assay type: cell-based
# Details: for Relative fat content: 7-10 days, relative to control group (100%)
# Method: The neutral fat content of cells was determined by oil red O staining. Prior to staining, the cells were washed twice with PBS and then fixed with 10% formaldehyde at room temperature for 30 minutes. The fixed cells were washed twice with PBS and rinsed with 60% isopropanol for 1 minute. Thereafter, the cells were stained with an oil red O staining solution (1.8 mg/ml oil red O dissolved in 60% isopropanol aqueous solution) for 1 hour, and then treated with 60% isopropanol for 5 seconds to remove excess dye. Lastly, 100% isopropanol was added to the cells and incubated with shaking for 10 minutes to dissolve the intracellular dye, and the absorbance of the cell suspension at 510 nm was measured using an ELISA (enzyme-linked immunosorbent assay) reader (BioTek). The statistical significance of differences between data was determined by Student's t-test using the Excel software.
# Briefly, OP9 cells were seeded at 8×10^4 cells/well in 24-well culture plates, where each well contained 500 μl of pre-adipocyte expansion medium (90% DMEM, 20% FBS, and 1% penicillin/streptomycin), and cultured at 37° C. for 7 days. The medium was refreshed every 3 days during cell culture with adipocyte differentiation medium (90% DMEM medium, 20% FBS, and 1% penicillin/streptomycin). After 7 days, complete differentiation into adipocytes were confirmed by examining oil droplets formed in the cells using a microscope (ZEISS; at 400× magnification). Thereafter, each of the plant extracts or each of the compositions containing plant extracts, listed in TABLE 1, was added to the cells, which were then cultured at 37° C. for 7-10 days, during which the adipocyte differentiation medium was refreshed every 3 days. Finally, the medium was removed, and the cells of each group were washed with PBS and subjected to oil red O staining for determination of the fat content. The relative fat content is a ratio of the cellular fat content of the experimental group relative to that of the control group (expressed as a percentage). […]
SMILES,Relative fat content (single treatment 0.015625 mg/ml) [%],Relative fat content (single treatment 0.5 mg/ml) [%],"Change of the fat content of adipocytes compared to the control group (in words) (sole treatment, concentrations as in TABLE 1, Student's t-test)"
CC(C)=CCC/C(C)=C/C=C/C(C)=C/C=C/C(C)=C/C=C/C=C(C)/C=C/C=C(C)/C=C/C=C(\C)CCC=C(C)C [Lycopene],73.34,,
CC1=C(/C=C/C(C)=C/C=C/C(C)=C/C=C/C=C(C)/C=C/C=C(C)/C=C/C2=C(C)CCCC2(C)C)C(C)(C)CCC1 [β-carotene],,99.00,did not significantly reduce the fat content
